Laboratory results published in patent publication US20230255953A1, “USE OF ROLUPERIDONE IN PREVENTING RELAPSE IN SCHIZOPHRENIA PATIENTS” (Minerva Neurosciences, Inc., priority 2022, published 2023).

System: patients with negative symptoms of schizophrenia
Assay: Integrated analysis of Studies #1 and #2 (pooled ITT): PANSS-derived scores (NSFS, total, positive and negative subscales), DB, OL and whole study
Type: in vivo, human
Design: key to NSFS Score change from Baseline, Median: change from Baseline in PANSS NSFS points; higher score = more severe
Conditions: for NSFS Score change from Baseline, LS mean (SE) / NSFS Score change from Baseline, Mean (SD) / NSFS Score change from Baseline, Median / NSFS Score, Difference (95% CI) in LS mean (vs placebo) / PANSS Negative Subscale Score change from Baseline, LS mean (SE) / PANSS Negative Subscale Score change from Baseline, Mean (SD) / PANSS Negative Subscale Score change from Baseline, Median / PANSS Negative Subscale Score, Difference (95% CI) in LS mean (vs placebo) / PANSS Total Score change from Baseline, LS mean (SE) / PANSS Total Score change from Baseline, Mean (SD) / PANSS Total Score change from Baseline, Median / PANSS Total Score, Difference (95% CI) in LS mean (vs placebo): DB
Experimental: The primary integrated analysis of the efficacy of Roluperidone compared with placebo for the treatment of negative symptoms of schizophrenia is based on the change from Baseline in the PANSS Marder's negative symptoms factor score (in this document referred to as NSFS) to Week 12. Efficacy is also supported by the analysis of change from Baseline in the PSP Total score and the CGI-S to Week 12.
The PANSS was assessed at the time points described in Table 4.
The PANSS-derived endpoints used in these studies and the integrated analyses are described in Table 5A and a summary of the individual PANSS items used by physicians and clinicians to measure the severity of the symptoms in a schizophrenia patient is provided in Table 5B. The scale is divided into three parts, a positive scale, which provides a “PANSS positive subscore”, a negative scale, which provides a “PANSS negative subscore”, and general psychopathology scale. The sum of these three parts provides a PANSS total score, which ranges from 30 to 210 (where higher scores indicate more severe symptoms). (See Kay, S. R., et al. “The positive and negative syndrome scale (PANSS) for schizophrenia,” Schizophr Bulletin, 13(2), 261-276 (1987) and Gopal, S., et al. “Improvement of Negative Symptoms in Schizophrenia with Paliperidone Palmitate 1-Month and 3-Month Long-Acting Injectables: Results from a Phase 3 Non-Inferiority Study” Neuropsychiatric Disease and Treatment, 681-690, DOI: 10.2147/NDT.5226296, both of which are incorporated by reference.)
The Efficacy data from Study Nos. 1 and 2 were pooled. The majority of patients in the pooled ITT population completed the DB period (502 patients overall, 66.3%), with similar rates in each treatment group (placebo: 69.8%, 32 mg Roluperidone: 65.3%, and 64 mg Roluperidone: 63.8%) (Table 12). The majority (62.7%) of those who completed the DB period entered the OL period. The most common reason for discontinuation during the DB period among patients overall was withdrawal of consent (15.6%), followed by adverse events (7.3%) and lack of efficacy (5.4%) (Table 12). […] Approximately twice as many patients in the Roluperidone groups (32 mg: 8.5%; 64 mg: 9.1%) discontinued due to adverse events compared with patients in the placebo group (4.3%). More patients in the placebo group discontinued due to lack of efficacy (6.7%) than in the Roluperidone groups (32 mg: 4.4%; 64 mg: 5.1%). The low number of patients who discontinued due to lack of efficacy or withdrawal of consent probably reflects a low level of worsening of positive symptoms.
The integrated analysis supporting the efficacy of Roluperidone as a treatment for the negative symptoms of schizophrenia in adults is presented below.

1H-Isoindol-1-one,2-[ [1-[2-(4-fluorophenyl)-2-oxoethyl]-4-piperidinyl]methyl]-2,3-dihydro-, hydrochloride, hydrate (1:1:2) [Roluperidone]
PANSS positive subscale score, LS mean change from Baseline compared with placebo (32 mg, Week 12, pooled ITT): −0.3 | PANSS total score, LS mean change from Baseline compared with placebo (32 mg, Week 12, pooled ITT): −1.9 | Patients with 20% Reduction in NSFS at Week 12, percent (32 mg, responder analysis): 31% | Patients with 20% Reduction in PANSS Total Score at Week 12, percent (32 mg, responder analysis): 14% | Number of Patients with 20% Reduction in PANSS Total Score at Week 12 (32 mg, responder analysis, n/N): 24/167 | Number of Patients with 20% reduction in NSFS at Week 12 (32 mg, responder analysis, n/N): 51/167 | NSFS Score change from Baseline, LS mean (SE) (64 mg, Week 2, pooled ITT): −1.4 (0.15) | NSFS Score change from Baseline, Mean (SD) (64 mg, Week 2, pooled ITT): −1.4 (2.34) | NSFS Score change from Baseline, Median (64 mg, Week 2, pooled ITT): −1.0 | NSFS Score, Difference (95% CI) in LS mean (vs placebo) (64 mg, Week 2, pooled ITT): −0.4 (−0.8, −0.0) | PANSS Negative Subscale Score change from Baseline, LS mean (SE) (64 mg, Week 2, pooled ITT): −1.4 (0.14) | PANSS Negative Subscale Score change from Baseline, Mean (SD) (64 mg, Week 2, pooled ITT): −1.4 (2.28) | PANSS Negative Subscale Score change from Baseline, Median (64 mg, Week 2, pooled ITT): −1.0 | PANSS Negative Subscale Score, Difference (95% CI) in LS mean (vs placebo) (64 mg, Week 2, pooled ITT): −0.4 | PANSS Total Score change from Baseline, LS mean (SE) (64 mg, Week 2, pooled ITT): −2.2 (0.44) | PANSS Total Score change from Baseline, Mean (SD) (64 mg, Week 2, pooled ITT): −2.2 (7.15) | PANSS Total Score change from Baseline, Median (64 mg, Week 2, pooled ITT): −2.0 | PANSS Total Score, Difference (95% CI) in LS mean (vs placebo) (64 mg, Week 2, pooled ITT): −0.9 | PANSS Positive Subscale Score change from Baseline, LS mean (SE) (64 mg, Week 2, pooled ITT): −0.1 (0.17) | PANSS Positive Subscale Score change from Baseline, Mean (SD) (64 mg, Week 2, pooled ITT): −0.1 (2.85) | PANSS Positive Subscale Score change from Baseline, Median (64 mg, Week 2, pooled ITT): 0.0 | PANSS Positive Subscale Score, Difference (95% CI) in LS mean (vs placebo) (64 mg, Week 2, pooled ITT): −0.1 | NSFS Score change from Baseline, LS mean (SE) (64 mg, Week 4, pooled ITT): −2.5 (0.19) | NSFS Score change from Baseline, Mean (SD) (64 mg, Week 4, pooled ITT): −2.6 (2.73) | NSFS Score change from Baseline, Median (64 mg, Week 4, pooled ITT): −2.0 | NSFS Score, Difference (95% CI) in LS mean (vs placebo) (64 mg, Week 4, pooled ITT): −1.1 | PANSS Negative Subscale Score change from Baseline, LS mean (SE) (64 mg, Week 4, pooled ITT): −2.6 (0.19) | PANSS Negative Subscale Score change from Baseline, Mean (SD) (64 mg, Week 4, pooled ITT): −2.8 (2.82) | PANSS Negative Subscale Score change from Baseline, Median (64 mg, Week 4, pooled ITT): −2.0 | PANSS Negative Subscale Score, Difference (95% CI) in LS mean (vs placebo) (64 mg, Week 4, pooled ITT): −1.2 | PANSS Total Score change from Baseline, LS mean (SE) (64 mg, Week 4, pooled ITT): −4.5 (0.52) | PANSS Total Score change from Baseline, Mean (SD) (64 mg, Week 4, pooled ITT): −5.1 (7.16) | PANSS Total Score change from Baseline, Median (64 mg, Week 4, pooled ITT): −5.0 | PANSS Total Score, Difference (95% CI) in LS mean (vs placebo) (64 mg, Week 4, pooled ITT): −2.5 | PANSS Positive Subscale Score change from Baseline, LS mean (SE) (64 mg, Week 4, pooled ITT): −0.2 (0.18) | PANSS Positive Subscale Score change from Baseline, Mean (SD) (64 mg, Week 4, pooled ITT): −0.4 (2.49) | PANSS Positive Subscale Score change from Baseline, Median (64 mg, Week 4, pooled ITT): −1.0 | PANSS Positive Subscale Score, Difference (95% CI) in LS mean (vs placebo) (64 mg, Week 4, pooled ITT): −0.5 | NSFS Score change from Baseline, LS mean (SE) (64 mg, Week 8, pooled ITT): −3.4 (0.23) | NSFS Score change from Baseline, Mean (SD) (64 mg, Week 8, pooled ITT): −3.6 (3.28) | NSFS Score change from Baseline, Median (64 mg, Week 8, pooled ITT): −3.0 | NSFS Score, Difference (95% CI) in LS mean (vs placebo) (64 mg, Week 8, pooled ITT): −1.2 | PANSS Negative Subscale Score change from Baseline, LS mean (SE) (64 mg, Week 8, pooled ITT): −3.7 (0.23) | PANSS Negative Subscale Score change from Baseline, Mean (SD) (64 mg, Week 8, pooled ITT): −3.9 (3.27) | PANSS Negative Subscale Score change from Baseline, Median (64 mg, Week 8, pooled ITT): −3.0 | PANSS Negative Subscale Score, Difference (95% CI) in LS mean (vs placebo) (64 mg, Week 8, pooled ITT): −1.3 | PANSS Total Score change from Baseline, LS mean (SE) (64 mg, Week 8, pooled ITT): −5.7 (0.65) | PANSS Total Score change from Baseline, Mean (SD) (64 mg, Week 8, pooled ITT): −6.8 (8.79) | PANSS Total Score change from Baseline, Median (64 mg, Week 8, pooled ITT): −6.0 | PANSS Total Score, Difference (95% CI) in LS mean (vs placebo) (64 mg, Week 8, pooled ITT): −2.5 | PANSS Positive Subscale Score change from Baseline, LS mean (SE) (64 mg, Week 8, pooled ITT): −0.3 (0.20) | PANSS Positive Subscale Score change from Baseline, Mean (SD) (64 mg, Week 8, pooled ITT): −0.6 (2.61) | PANSS Positive Subscale Score change from Baseline, Median (64 mg, Week 8, pooled ITT): −1.0 | PANSS Positive Subscale Score, Difference (95% CI) in LS mean (vs placebo) (64 mg, Week 8, pooled ITT): −0.5 | NSFS Score change from Baseline, LS mean (SE) (64 mg, Week 12, pooled ITT): −3.9 (0.26) | NSFS Score change from Baseline, Mean (SD) (64 mg, Week 12, pooled ITT): −4.1 (3.64) | NSFS Score change from Baseline, Median (64 mg, Week 12, pooled ITT): −3.5 | NSFS Score, Difference (95% CI) in LS mean (vs placebo) (64 mg, Week 12, pooled ITT): −1.3 | PANSS Negative Subscale Score change from Baseline, LS mean (SE) (64 mg, Week 12, pooled ITT): −4.1 (0.27) | PANSS Negative Subscale Score change from Baseline, Mean (SD) (64 mg, Week 12, pooled ITT): −4.4 (3.75) | PANSS Negative Subscale Score change from Baseline, Median (64 mg, Week 12, pooled ITT): −4.0 | PANSS Negative Subscale Score, Difference (95% CI) in LS mean (vs placebo) (64 mg, Week 12, pooled ITT): −1.3 | PANSS Total Score change from Baseline, LS mean (SE) (64 mg, Week 12, pooled ITT): −6.3 (0.70) | PANSS Total Score change from Baseline, Mean (SD) (64 mg, Week 12, pooled ITT): −7.7 (9.43) | PANSS Total Score change from Baseline, Median (64 mg, Week 12, pooled ITT): −7.0 | PANSS Total Score, Difference (95% CI) in LS mean (vs placebo) (64 mg, Week 12, pooled ITT): −2.8 | NSFS Emotional Experience Score, Change from Baseline (LS Means [SEM]) (64 mg, Week 12, ITT): −1.6 (0.13) | NSFS Emotional Expression Score, Change from Baseline (LS Means [SEM]) (64 mg, Week 12, ITT): −2.3 (0.16) | NSFS, Change from Baseline (LS Means [SEM]) (64 mg, Week 12, ITT): −3.9 (0.26) | PANSS General Psychopathology Subscale, Change from Baseline (LS Means [SEM]) (64 mg, Week 12, ITT): −2.2 (0.37) | PANSS Negative Symptoms Subscale, Change from Baseline (LS Means [SEM]) (64 mg, Week 12, ITT): −4.1 (0.27) | PANSS Positive Symptoms Subscale, Change from Baseline (LS Means [SEM]) (64 mg, Week 12, ITT): −0.2 (0.21) | PANSS Total Score, Change from Baseline (LS Means [SEM]) (64 mg, Week 12, ITT): −6.3 (0.70) | NSFS, LS mean change from Baseline compared with placebo (64 mg, Week 12, normal BMI (<25 kg/m^2) subgroup, pooled ITT): −1.7 | NSFS, LS mean change from Baseline compared with placebo (64 mg, Week 12, obese (≥30 kg/m^2) subgroup, pooled ITT): −0.1 | NSFS, LS mean change from Baseline compared with placebo (64 mg, Week 12, overweight BMI (25 to <30 kg/m^2) subgroup, pooled ITT): −1.4 | Patients with high improvement in NSFS (magnitude of change >8) (64 mg, Week 12, pooled): 13%
